Measured values: EP0099286B1, “Compound containing a tripeptide sequence of the threonyl-lysyl proline-type, or similar, useful as an anti-inflammatory, anti-allergic or antalgesic agent” (INSTITUT PASTEUR DE LILLE, priority 1982, dated 1987)
Values belong to the compound of their own block, whether it stands above or below them. Residues, ends and D or L forms follow the SMILES beside them.

How the values were obtained:
[1] = system: macrophages; assay: Inhibition of macrophage activity (general); format: cell-based; conditions: for propriétés au terme des mêmes tests: same tests as for the tripeptide
Excerpt: (§1) Selon des tests effectués par les méthodes décrites dans l'article cité plus haut de "Immunology Letters", la L'thréonyl-L-lysyl-L-proline s'est révélée atoxique pour les cellules et inhibitrice non seulement de la libération, mais également de la synthèse de la β-glucuronidase lysosomiale. En présence du peptide, le taux intracellulaire de cette enzyme décroît également. La L-thréonyl-L-lysyl-L-proline inhibe également la stimulation des macrophages de patients allergiques par l'allergène correspondant, lorsqu'ils ont été préincubés en présence du peptide. Cette dépression est très significative (50 à 70%) dans des essais in vitro. La thréonyl-L-lysyl-L-proline présente un pouvoir inhibiteur d'environ 60% aux concentrations de 200 nanogrammes à 20 picogrammes, ce pouvoir inhibiteur étant même de 50% à 2 picogrammes. Cette inhibition par le peptide se manifeste aussi dans des essais d'activation de macrophages par des réactions (IgE)-(Anti-IgE), que ces macrophages aient été incubés auparavant in vitro en présence du peptide, ou obtenus à partir d'animaux auxquels le peptide avait antérieurement été administré par voie intraveineuse (chez le rat, à des doses de 10 µg, trois heures avant le prélèvement des cellules). La libération d'anion superoxyde par les macrophages de rats est également inhibée par le tripeptide en question. […] Le peptide administré au rat induit également une inhibition de l'anaphylaxie cutanée passive provoquée chez l'animal par les administrations successives d'un antigène et de l'antisérum correspondant.

[2] = system: cellules; assay: Toxicity for the cells; format: cell-based; conditions: methods of the cited Immunology Letters article
Excerpt: (§2) Selon des tests effectués par les méthodes décrites dans l'article cité plus haut de "Immunology Letters", la L'thréonyl-L-lysyl-L-proline s'est révélée atoxique pour les cellules et inhibitrice non seulement de la libération, mais également de la synthèse de la β-glucuronidase lysosomiale. En présence du peptide, le taux intracellulaire de cette enzyme décroît également. La L-thréonyl-L-lysyl-L-proline inhibe également la stimulation des macrophages de patients allergiques par l'allergène correspondant, lorsqu'ils ont été préincubés en présence du peptide. Cette dépression est très significative (50 à 70%) dans des essais in vitro. La thréonyl-L-lysyl-L-proline présente un pouvoir inhibiteur d'environ 60% aux concentrations de 200 nanogrammes à 20 picogrammes, ce pouvoir inhibiteur étant même de 50% à 2 picogrammes. Cette inhibition par le peptide se manifeste aussi dans des essais d'activation de macrophages par des réactions (IgE)-(Anti-IgE), que ces macrophages aient été incubés auparavant in vitro en présence du peptide, ou obtenus à partir d'animaux auxquels le peptide avait antérieurement été administré par voie intraveineuse (chez le rat, à des doses de 10 µg, trois heures avant le prélèvement des cellules). La libération d'anion superoxyde par les macrophages de rats est également inhibée par le tripeptide en question. […]

[3] = system: β-glucuronidase lysosomiale; assay: Release and synthesis of lysosomal β-glucuronidase by macrophages; format: cell-based
Excerpt: as §1

[4] = system: macrophages de patients allergiques; assay: Stimulation of macrophages of allergic patients by the corresponding allergen, in vitro; format: cell-based
Excerpt: D'autre part, les macrophages alvéolaires de sujets allergiques stimulés par l'allergène correspondant sont également inhibés de manière significative (50 à 60%) s'ils ont été péalablement incubés avec des produits de l'hydrolyse des IgG par les protéases parasitaires.
Selon des tests effectués par les méthodes décrites dans l'article cité plus haut de "Immunology Letters", la L'thréonyl-L-lysyl-L-proline s'est révélée atoxique pour les cellules et inhibitrice non seulement de la libération, mais également de la synthèse de la β-glucuronidase lysosomiale. En présence du peptide, le taux intracellulaire de cette enzyme décroît également. La L-thréonyl-L-lysyl-L-proline inhibe également la stimulation des macrophages de patients allergiques par l'allergène correspondant, lorsqu'ils ont été préincubés en présence du peptide. Cette dépression est très significative (50 à 70%) dans des essais in vitro. La thréonyl-L-lysyl-L-proline présente un pouvoir inhibiteur d'environ 60% aux concentrations de 200 nanogrammes à 20 picogrammes, ce pouvoir inhibiteur étant même de 50% à 2 picogrammes. […]

[5] = system: macrophages; assay: Macrophage activation by (IgE)-(Anti-IgE) reactions, macrophages pre-incubated in vitro with the peptide; format: cell-based; conditions: macrophages incubated beforehand in vitro with the peptide
Excerpt: as §2

[6] = system: macrophages; assay: Macrophage activation by (IgE)-(Anti-IgE) reactions, macrophages from animals given the peptide intravenously; format: in vivo; conditions: rat, intravenous, 10 µg, three hours before cell collection
Excerpt: as §2

[7] = system: macrophages de rats; assay: Superoxide anion release by macrophages; format: cell-based
Excerpt: as §2

[8] = system: mastocytes; assay: Mast cell degranulation in vitro; format: cell-based, rats; conditions: pre-incubated with peptide; stimulants polymyxine or phytohémagglutinine
[9] = system: anaphylaxie cutanée passive; assay: Passive cutaneous anaphylaxis; format: in vivo; conditions: rat; provoked by successive administration of antigen and corresponding antiserum
Excerpt: as §2

[10] = system: macrophages; conditions: macrophages challenged simultaneously by an antigen and the peptide; cited from earlier work

SMILES: CC(=O)N[C@H](C(=O)N[C@@H](CCCCN)C(=O)N1CCC[C@H]1C(=O)O)[C@@H](C)O [dérivé N-acétylé] (Ac-Thr-Lys-Pro-OH)
- propriétés au terme des mêmes tests [1]: essentiellement les mêmes propriétés

SMILES: N=C(N)NCCC[C@H](NC(=O)[C@@H]1CCCN1C(=O)[C@@H](N)CCCCN)C(=O)O [L-lysyl-L-prolyl-L-arginine, reference compound] (H-Lys-Pro-Arg-OH)
- activité à l'égard de l'activité des macrophages [1]: n'est pas active

- libération de la β-glucuronidase lysosomiale [3]: inhibitrice
- synthèse de la β-glucuronidase lysosomiale [3]: inhibitrice
- taux intracellulaire de cette enzyme ([3]; β-glucuronidase, in presence of the peptide): décroît
SMILES: C[C@@H](O)[C@H](N)C(=O)N[C@@H](CCCCN)C(=O)N1CCC[C@H]1C(=O)O [L-thréonyl-L-lysyl-L-proline] (H-Thr-Lys-Pro-OH)
- activité à l'égard de l'activité des macrophages [1]: activité inhibitrice semblable
- toxicité pour les cellules [2]: atoxique
- pouvoir inhibiteur ([4]; 2 picogrammes): 50%
- pouvoir inhibiteur ([4]; concentrations de 200 nanogrammes à 20 picogrammes): ~60%
- inhibition de l'activation de macrophages par des réactions (IgE)-(Anti-IgE) [5]: inhibition
- inhibition de l'activation de macrophages par des réactions (IgE)-(Anti-IgE) [6]: inhibition
- libération d'anion superoxyde par les macrophages de rats [7]: inhibée
- dégranulation des mastocytes [8]: inhibition sensible
- inhibition de l'anaphylaxie cutanée passive [9]: inhibition
- propriété d'activer les macrophages [10]: abolition

SMILES: C[C@@H](O)[C@H](N)C(=O)N[C@@H](CCCCN)C(=O)N1CCC[C@H]1C(N)=O [dérivé amidé, amide de la thréonyl-lysylproline] (H-Thr-Lys-Pro-NH2)
- propriétés au terme des mêmes tests [1]: essentiellement les mêmes propriétés
